Test results taken from publication PMC7048932, “Examining sterically demanding lysine analogs for histone lysine methyltransferase catalysis” (Scientific Reports, 2020).

Target: T1, G9a (Homo sapiens, UniProt Q96KQ7)
T1 construct: His6 (N); made in house; host or cells: E. coli BL21 (DE3)pLysS-rosetta
T1 sequence (Q96KQ7 1-1210): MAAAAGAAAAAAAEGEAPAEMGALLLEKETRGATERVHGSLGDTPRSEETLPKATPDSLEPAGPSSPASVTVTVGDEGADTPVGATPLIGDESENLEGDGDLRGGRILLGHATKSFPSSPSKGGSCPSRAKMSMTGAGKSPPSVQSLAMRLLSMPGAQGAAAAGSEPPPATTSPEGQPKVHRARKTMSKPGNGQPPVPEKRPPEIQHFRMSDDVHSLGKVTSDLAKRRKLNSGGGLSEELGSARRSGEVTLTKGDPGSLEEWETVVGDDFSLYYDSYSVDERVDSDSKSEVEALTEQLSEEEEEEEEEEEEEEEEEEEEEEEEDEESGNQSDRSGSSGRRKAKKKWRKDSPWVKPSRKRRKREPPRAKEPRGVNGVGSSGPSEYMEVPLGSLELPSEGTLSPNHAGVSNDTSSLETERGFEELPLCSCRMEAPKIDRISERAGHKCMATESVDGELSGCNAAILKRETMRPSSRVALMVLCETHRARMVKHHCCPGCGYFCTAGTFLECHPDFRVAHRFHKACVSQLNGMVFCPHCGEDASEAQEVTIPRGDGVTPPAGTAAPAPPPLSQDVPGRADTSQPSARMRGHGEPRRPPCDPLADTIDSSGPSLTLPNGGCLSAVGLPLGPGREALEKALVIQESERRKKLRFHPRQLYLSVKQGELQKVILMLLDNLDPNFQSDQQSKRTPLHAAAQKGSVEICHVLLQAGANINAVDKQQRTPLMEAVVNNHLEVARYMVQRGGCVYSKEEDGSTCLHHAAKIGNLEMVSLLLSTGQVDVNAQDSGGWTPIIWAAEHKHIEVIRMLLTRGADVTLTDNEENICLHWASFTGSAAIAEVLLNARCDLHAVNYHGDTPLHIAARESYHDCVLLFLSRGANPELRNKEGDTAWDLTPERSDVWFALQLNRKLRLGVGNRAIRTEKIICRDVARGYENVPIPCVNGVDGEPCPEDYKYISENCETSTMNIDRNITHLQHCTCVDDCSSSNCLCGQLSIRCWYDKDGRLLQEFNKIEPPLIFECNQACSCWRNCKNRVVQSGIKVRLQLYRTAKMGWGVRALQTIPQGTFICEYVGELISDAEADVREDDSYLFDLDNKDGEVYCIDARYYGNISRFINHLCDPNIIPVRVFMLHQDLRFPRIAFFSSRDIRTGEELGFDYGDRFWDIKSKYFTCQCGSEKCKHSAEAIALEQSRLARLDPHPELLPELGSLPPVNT
Assay: MALDI-TOF MS methylation assay of H3K9 peptides with G9a
Type: biochemical
Settings: peptide 100 µM, G9a 2 µM, SAM 500 µM, 1 h, 37 °C
Procedure: MALDI-MS methyltransferases activity experiments were performed using a Bruker instrument in the reflectron positive mode. For regular methyltransferase standard conditions experiment which carried out in 30 µL total volume, the mixture contains peptide (100 µM), SAM (200 µM), SETD8 or SETD7 (2 µM), in assay buffer 50 mM Tris at optimal pH 8.0. In case of G9a and GLP, similar conditions were used, except (500 µM) of SAM was added to the reaction mixture. Samples were incubated in an Eppendorf vial 1.5 mL using thermomixer for 1 h at 37 °C. A 5 µL aliquot of the solution was mixed with 5 µL of MeOH, after which 5 µL of this mixture was mixed with 5 µL of α-cyano-4-hydroxycinamic acid matrix (CHCA, 5 mg/mL in 125:125 µL acetonitrile/water). The spots were placed on a stainless steel MALDI plate (MS 96 target ground steel BC of Bruker, Germany). The mass corresponding to one monomethylation observed as +14 Da, dimethylation observed as +28 Da and trimethylation observed as +42 Da. The enzymatic activity was determined by taking the peak areas of each methylation state, including all isotopes and adducts, and was annotated using FlexAnalysis software (Bruker Daltonics, Germany). […] Methylated peptide substrates were repeated five times and the unmethylated substrates were triplicated. Sequences of the examined peptides are given in (Supplementary Table 1).

G9a-catalyzed methylation, result in words: traces detected | G9a-catalyzed methylation, result in words (listed as H3K ba9): trace of monomethylation
Substance: ARTKQTAR(Kba9)STGGKA [H3Kba9]
